This assay has as its target dopamine transporter (DAT) (Rattus norvegicus, UniProt P23977). The experiment in a line: biochemical.

From paper PMC3085641 (Bioorganic & medicinal chemistry letters, 2011) come the findings set out here.

Molecules are shown by their SMILES.

Sequence of dopamine transporter (DAT) (P23977 whole entry): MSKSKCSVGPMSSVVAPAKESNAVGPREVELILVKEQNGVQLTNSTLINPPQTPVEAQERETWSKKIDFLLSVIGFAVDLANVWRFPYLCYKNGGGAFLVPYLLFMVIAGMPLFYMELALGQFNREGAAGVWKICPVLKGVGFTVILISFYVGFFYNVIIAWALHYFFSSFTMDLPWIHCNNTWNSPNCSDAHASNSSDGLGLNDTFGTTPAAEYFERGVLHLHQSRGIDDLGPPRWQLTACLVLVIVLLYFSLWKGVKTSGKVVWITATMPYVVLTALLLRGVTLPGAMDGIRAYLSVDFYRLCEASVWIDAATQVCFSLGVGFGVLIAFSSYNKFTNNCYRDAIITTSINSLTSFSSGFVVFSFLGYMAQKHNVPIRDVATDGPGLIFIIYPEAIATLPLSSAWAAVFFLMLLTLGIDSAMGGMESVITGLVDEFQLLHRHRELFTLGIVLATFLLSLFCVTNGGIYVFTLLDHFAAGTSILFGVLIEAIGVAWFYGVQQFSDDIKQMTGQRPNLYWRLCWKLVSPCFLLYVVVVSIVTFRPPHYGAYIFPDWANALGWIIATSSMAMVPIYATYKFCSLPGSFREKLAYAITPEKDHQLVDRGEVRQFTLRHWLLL

Broadly, the Ki is the dissociation constant of the complex between target and ligand, obtained from inhibition or displacement. High values mean weaker binding, low ones tighter binding. Consider `CN1C2CCC1[C@@H](CNc1ccc(Br)nc1)[C@@H](c1ccc(Cl)cc1)C2` (stereo partly shown) [Compound 6b], for which the Ki is 17 nM.
